Reference: article PMC5218480 (PLoS ONE, 2017)

System: MV-4-11 cells
Assay: Gene expression microarray analysis (Affymetrix PrimeView) and GSEA
Type: cell-based, human
Parameters: RFU PODN (11730768_x_at) / Fold change /veh PODN (11730768_x_at) / RFU LINC00158 (11744669_a_at) / Fold change /veh LINC00158 (11744669_a_at) / RFU DUSP10 (11751237_a_at) / Fold change /veh DUSP10 (11751237_a_at) / RFU ID3 (11757404_x_at) / Fold change /veh ID3 (11757404_x_at) / RFU PLEKHG5 (11737974_s_at) / Fold change /veh PLEKHG5 (11737974_s_at) / RFU LRRC4B (11730491_at) / Fold change /veh LRRC4B (11730491_at) / RFU GIMAP4 (11747438_a_at) / Fold change /veh GIMAP4 (11747438_a_at) / RFU KRT8 (11758183_x_at) / Fold change /veh KRT8 (11758183_x_at) / RFU CNN1 (11734310_a_at) / Fold change /veh CNN1 (11734310_a_at) / RFU VPS37D (11726825_at) / Fold change /veh VPS37D (11726825_at) / RFU C10orf10 (11716522_x_at) / Fold change /veh C10orf10 (11716522_x_at) / RFU KIR2DL2 /// KIR2DL4 /// KIR2DL5A /// KIR2DL5B /// KIR2DS1 /// KIR2DS2 /// KIR2DS3 /// KIR2DS4 /// KIR3DL3 /// KIR3DL3 /// KIR3DS1 (11738374_at) / Fold change /veh KIR2DL2 /// KIR2DL4 /// KIR2DL5A /// KIR2DL5B /// KIR2DS1 /// KIR2DS2 /// KIR2DS3 /// KIR2DS4 /// KIR3DL3 /// KIR3DL3 /// KIR3DS1 (11738374_at) / RFU C1QL1 (11718748_at) / Fold change /veh C1QL1 (11718748_at) / RFU TMPRSS4 (11747572_a_at) / Fold change /veh TMPRSS4 (11747572_a_at) / RFU HAMP (11756126_x_at) / Fold change /veh HAMP (11756126_x_at) / RFU RNFT2 (11725882_a_at) / Fold change /veh RNFT2 (11725882_a_at) / RFU NR4A2 (11747474_a_at) / Fold change /veh NR4A2 (11747474_a_at) / RFU ABCC12 (11746883_a_at) / Fold change /veh ABCC12 (11746883_a_at) / RFU TMEM136 (11760407_x_at) / Fold change /veh TMEM136 (11760407_x_at) / RFU CLDN22 /// WWC2 (11732394_at) / Fold change /veh CLDN22 /// WWC2 (11732394_at) / RFU HLA-DPB1 (11760878_x_at) / Fold change /veh HLA-DPB1 (11760878_x_at) / RFU SPINT1 (11716480_a_at) / Fold change /veh SPINT1 (11716480_a_at) / RFU GAP43 (11754022_s_at) / Fold change /veh GAP43 (11754022_s_at) / RFU A4GNT (11735810_at) / Fold change /veh A4GNT (11735810_at) / RFU PRB3 (11715151_x_at) / Fold change /veh PRB3 (11715151_x_at) / RFU TUBB4B (11761932_at) / Fold change /veh TUBB4B (11761932_at) / RFU CAPN14 (11732068_a_at) / Fold change /veh CAPN14 (11732068_a_at) / RFU TMCC2 (11721928_a_at) / Fold change /veh TMCC2 (11721928_a_at) / RFU IRGQ (11745062_a_at) / Fold change /veh IRGQ (11745062_a_at) / RFU FAM174B (11720279_a_at) / Fold change /veh FAM174B (11720279_a_at) / RFU TMPRSS4 (11748680_a_at) / Fold change /veh TMPRSS4 (11748680_a_at) / RFU FAM212B (11763350_a_at) / Fold change /veh FAM212B (11763350_a_at) / RFU PLEKHG5 (11743358_a_at) / Fold change /veh PLEKHG5 (11743358_a_at) / RFU ZSCAN30 (11745921_a_at) / Fold change /veh ZSCAN30 (11745921_a_at) / RFU CMKLR1 (11741424_a_at) / Fold change /veh CMKLR1 (11741424_a_at) / RFU LOC101060620 /// MAPK8IP1 (11723275_at) / Fold change /veh LOC101060620 /// MAPK8IP1 (11723275_at) / RFU SPTSSB (11747773_x_at) / Fold change /veh SPTSSB (11747773_x_at) / RFU PRSS12 (11739890_at) / Fold change /veh PRSS12 (11739890_at) / RFU BIN1 (11741810_x_at) / Fold change /veh BIN1 (11741810_x_at) / RFU WNT11 (11732464_a_at) / Fold change /veh WNT11 (11732464_a_at) / RFU C10orf10 (11716521_a_at) / Fold change /veh C10orf10 (11716521_a_at) / RFU C5orf56 (11738089_at) / Fold change /veh C5orf56 (11738089_at) / RFU CYB561 (11721691_x_at) / Fold change /veh CYB561 (11721691_x_at) / RFU ANKRD19P (11752326_a_at) / Fold change /veh ANKRD19P (11752326_a_at) / RFU OR2T12 /// OR2T33 /// OR2T8 (11738714_s_at) / Fold change /veh OR2T12 /// OR2T33 /// OR2T8 (11738714_s_at) / RFU VCAN (11748164_a_at) / Fold change /veh VCAN (11748164_a_at) / RFU JSRP1 (11732532_at) / Fold change /veh JSRP1 (11732532_at) / RFU KRTAP10-11 (11738290_x_at) / Fold change /veh KRTAP10-11 (11738290_x_at) / RFU MYO3A (11730013_a_at) / Fold change /veh MYO3A (11730013_a_at) / RFU EBF3 (11725865_a_at) / Fold change /veh EBF3 (11725865_a_at) / RFU CAMK2N1 (11719241_x_at) / Fold change /veh CAMK2N1 (11719241_x_at) / RFU C5orf56 (11738088_a_at) / Fold change /veh C5orf56 (11738088_a_at) / RFU OLFML3 (11715873_a_at) / Fold change /veh OLFML3 (11715873_a_at) / RFU LOC100653217 /// NTM (11731650_a_at) / Fold change /veh LOC100653217 /// NTM (11731650_a_at) / RFU MAPK11 (11762145_a_at) / Fold change /veh MAPK11 (11762145_a_at) / RFU FIZ1 (11724087_x_at) / Fold change /veh FIZ1 (11724087_x_at) / RFU OASL (11726364_x_at) / Fold change /veh OASL (11726364_x_at) / RFU SOX15 (11748057_x_at) / Fold change /veh SOX15 (11748057_x_at) / RFU CD79A (11719716_a_at) / Fold change /veh CD79A (11719716_a_at) / RFU HIST1H1D (11736915_at) / Fold change /veh HIST1H1D (11736915_at) / RFU CASKIN2 (11723855_a_at) / Fold change /veh CASKIN2 (11723855_a_at) / RFU LOC730098 (11760151_x_at) / Fold change /veh LOC730098 (11760151_x_at) / RFU OR4N2 (11742367_at) / Fold change /veh OR4N2 (11742367_at) / RFU PRRT2 (11749266_a_at) / Fold change /veh PRRT2 (11749266_a_at) / RFU SNX32 (11753110_a_at) / Fold change /veh SNX32 (11753110_a_at) / RFU CDHR5 (11726645_a_at) / Fold change /veh CDHR5 (11726645_a_at) / RFU RCAN1 (11760418_a_at) / Fold change /veh RCAN1 (11760418_a_at) / RFU FAM167A (11723789_a_at) / Fold change /veh FAM167A (11723789_a_at) / RFU FAM26E (11764081_at) / Fold change /veh FAM26E (11764081_at) / RFU ISYNA1 (11749810_s_at) / Fold change /veh ISYNA1 (11749810_s_at) / RFU ACY1 (11761880_at) / Fold change /veh ACY1 (11761880_at) / RFU 11764098_at / Fold change /veh 11764098_at / RFU SAMD14 (11745864_x_at) / Fold change /veh SAMD14 (11745864_x_at) / RFU NPB (11741838_a_at) / Fold change /veh NPB (11741838_a_at) / RFU TMPRSS6 (11731388_a_at) / Fold change /veh TMPRSS6 (11731388_a_at) / RFU KRTAP10-2 (11738614_at) / Fold change /veh KRTAP10-2 (11738614_at) / RFU ARHGAP8 /// PRR5-ARHGAP8 (11727945_x_at) / Fold change /veh ARHGAP8 /// PRR5-ARHGAP8 (11727945_x_at) / RFU KRTAP5-7 /// NADSYN1 (11734609_at) / Fold change /veh KRTAP5-7 /// NADSYN1 (11734609_at) / RFU RASL12 (11751679_a_at) / Fold change /veh RASL12 (11751679_a_at) / RFU CDKN2B (11736163_a_at) / Fold change /veh CDKN2B (11736163_a_at) / RFU PRF1 (11729649_at) / Fold change /veh PRF1 (11729649_at) / RFU, ZNF638 /// ZNF638-IT1 / Fold change vs veh, ZNF638 /// ZNF638-IT1 / RFU, PANK3 / Fold change vs veh, PANK3 / RFU, SH3YL1 / Fold change vs veh, SH3YL1 / RFU, ZEB2 / Fold change vs veh, ZEB2 / RFU, NRIP1 / Fold change vs veh, NRIP1 / RFU, PTTG1IP / Fold change vs veh, PTTG1IP / RFU, CAPN2 / Fold change vs veh, CAPN2 / RFU, MED14 / Fold change vs veh, MED14 / RFU, SNORA58 / Fold change vs veh, SNORA58 / RFU, C1orf63 / Fold change vs veh, C1orf63 / RFU, LRRFIP1 / Fold change vs veh, LRRFIP1 / RFU, NDUFAF7 / Fold change vs veh, NDUFAF7 / RFU, SLC12A2 / Fold change vs veh, SLC12A2 / RFU, IBTK / Fold change vs veh, IBTK / RFU, ESF1 / Fold change vs veh, ESF1 / Fold change vs veh, TMEM50B / RFU, TAOK1 / Fold change vs veh, TAOK1 / RFU, ACBD3 / Fold change vs veh, ACBD3 / RFU, TMA16 / Fold change vs veh, TMA16 / RFU, RWDD3 / Fold change vs veh, RWDD3 / RFU, BCAT1 / Fold change vs veh, BCAT1 / RFU, EDEM3 / Fold change vs veh, EDEM3 / RFU, TMEM33 / Fold change vs veh, TMEM33 / RFU, WDR75 / Fold change vs veh, WDR75 / RFU, AHCTF1 / Fold change vs veh, AHCTF1 / RFU, TFRC / Fold change vs veh, TFRC / RFU, ZDHHC17 / Fold change vs veh, ZDHHC17 / RFU, NOM1 / Fold change vs veh, NOM1 / RFU, ARL8B / Fold change vs veh, ARL8B / RFU, ZBTB11 / Fold change vs veh, ZBTB11 / RFU, TAMM41 / Fold change vs veh, TAMM41 / RFU, KIAA1704 /// LOC100996395 / Fold change vs veh, KIAA1704 /// LOC100996395 / RFU, ING1 / Fold change vs veh, ING1 / RFU, TRMT61B / Fold change vs veh, TRMT61B / RFU, FUBP3 / Fold change vs veh, FUBP3 / RFU, TP53 / Fold change vs veh, TP53 / RFU, TNKS2 / Fold change vs veh, TNKS2 / RFU, ZFP14 / Fold change vs veh, ZFP14 / RFU, ACTR2 / Fold change vs veh, ACTR2 / RFU, PPP3R1 / Fold change vs veh, PPP3R1 / RFU, PIK3R1 / Fold change vs veh, PIK3R1 / RFU, HNRNPA1 / Fold change vs veh, HNRNPA1 / RFU, RNF170 / Fold change vs veh, RNF170 / RFU, ZNF28 / Fold change vs veh, ZNF28 / RFU, RNGTT / Fold change vs veh, RNGTT / RFU, OGT / Fold change vs veh, OGT / RFU, BRD1 / Fold change vs veh, BRD1 / RFU, MARS / Fold change vs veh, MARS / RFU, ZNF655 / Fold change vs veh, ZNF655 / RFU, FAHD1 / Fold change vs veh, FAHD1 / RFU, BDP1 / Fold change vs veh, BDP1 / RFU, LRRCC1 / Fold change vs veh, LRRCC1 / RFU, ARID1A / Fold change vs veh, ARID1A / RFU, ZNF146 / Fold change vs veh, ZNF146 / RFU, ZNF330 / Fold change vs veh, ZNF330 / RFU, GPN3 / Fold change vs veh, GPN3 / RFU, C9orf123 / Fold change vs veh, C9orf123 / RFU, N4BP2L2 / Fold change vs veh, N4BP2L2 / RFU, ARFIP1 / Fold change vs veh, ARFIP1 / RFU, FAM179B / Fold change vs veh, FAM179B / RFU, BCL10 / Fold change vs veh, BCL10 / RFU, UHRF1BP1L / Fold change vs veh, UHRF1BP1L / RFU, BET1 / Fold change vs veh, BET1 / RFU, CNOT2 / Fold change vs veh, CNOT2 / RFU, ZNF268 / Fold change vs veh, ZNF268 / Fold change vs veh, ZNF507 / RFU, DGCR2 / Fold change vs veh, DGCR2 / RFU, WDSUB1 / Fold change vs veh, WDSUB1 / Fold change vs veh, HSP90B1 /// MIR3652 / RFU, ADSS / Fold change vs veh, ADSS / RFU, GK / Fold change vs veh, GK / RFU, ZNF148 / Fold change vs veh, ZNF148 / RFU, TAF9 / Fold change vs veh, TAF9 / RFU, SLC1A5 / Fold change vs veh, SLC1A5 / RFU, SLMO2 / Fold change vs veh, SLMO2 / RFU, ABCC4 / Fold change vs veh, ABCC4 / RFU, LOC101060439 /// RAP1B / Fold change vs veh, LOC101060439 /// RAP1B / RFU, RFX7 / Fold change vs veh, RFX7 / RFU, GTPBP10 / Fold change vs veh, GTPBP10 / RFU, CNEP1R1 / Fold change vs veh, CNEP1R1 / RFU, BIVM-ERCC5 /// ERCC5 / Fold change vs veh, BIVM-ERCC5 /// ERCC5 / RFU, ILF3 / Fold change vs veh, ILF3 / RFU 11762660_at / Fold change /veh 11762660_at / RFU VCAN (11757783_s_at) / Fold change /veh VCAN (11757783_s_at) / RFU DDX43 (11728927_at) / Fold change /veh DDX43 (11728927_at) / RFU KRT8 (11758188_x_at) / Fold change /veh KRT8 (11758188_x_at) / RFU NKD1 (11759106_at) / Fold change /veh NKD1 (11759106_at) / RFU SRD5A1 (11742802_a_at) / Fold change /veh SRD5A1 (11742802_a_at) / RFU TPSAB1 /// TPSB2 (11721975_s_at) / Fold change /veh TPSAB1 /// TPSB2 (11721975_s_at) / RFU GSTM3 (11746129_a_at) / Fold change /veh GSTM3 (11746129_a_at) / RFU IL23R (11737362_x_at) / Fold change /veh IL23R (11737362_x_at) / RFU TMEM51 (11727254_a_at) / Fold change /veh TMEM51 (11727254_a_at) / RFU PIWIL2 (11732686_x_at) / Fold change /veh PIWIL2 (11732686_x_at) / RFU ORM1 (11744905_x_at) / Fold change /veh ORM1 (11744905_x_at) / RFU CCDC152 (11743942_at) / Fold change /veh CCDC152 (11743942_at) / RFU ECM1 (11717891_a_at) / Fold change /veh ECM1 (11717891_a_at) / RFU IL23R (11748794_a_at) / Fold change /veh IL23R (11748794_a_at) / RFU TNFAIP8L3 (11732012_x_at) / Fold change /veh TNFAIP8L3 (11732012_x_at) / RFU MBOAT4 (11741988_at) / Fold change /veh MBOAT4 (11741988_at) / RFU 11764193_at / Fold change /veh 11764193_at / RFU TMEM53 (11763286_at) / Fold change /veh TMEM53 (11763286_at) / RFU MAGEB2 (11727129_at) / Fold change /veh MAGEB2 (11727129_at) / RFU TMEM200A (11744735_a_at) / Fold change /veh TMEM200A (11744735_a_at) / RFU CCDC152 (11751479_a_at) / Fold change /veh CCDC152 (11751479_a_at) / RFU FAM211A (11726209_a_at) / Fold change /veh FAM211A (11726209_a_at) / RFU RGS16 (11746705_a_at) / Fold change /veh RGS16 (11746705_a_at) / RFU VCAN (11755009_s_at) / Fold change /veh VCAN (11755009_s_at) / RFU RHOB (11743442_s_at) / Fold change /veh RHOB (11743442_s_at) / RFU RGS16 (11720943_a_at) / Fold change /veh RGS16 (11720943_a_at) / RFU RGS16 (11720944_at) / Fold change /veh RGS16 (11720944_at) / RFU, VPS4B / Fold change vs veh, VPS4B / RFU, CREB1 / Fold change vs veh, CREB1 / RFU, DNAJC13 / Fold change vs veh, DNAJC13 / RFU, GNAQ / Fold change vs veh, GNAQ / RFU, CDK5R1 / Fold change vs veh, CDK5R1 / RFU, ZRANB3 / Fold change vs veh, ZRANB3 / RFU, CUL4A / Fold change vs veh, CUL4A / RFU, CCNY / Fold change vs veh, CCNY / RFU, UFL1 / Fold change vs veh, UFL1 / RFU, COG3 / Fold change vs veh, COG3 / RFU, DIAPH2 / Fold change vs veh, DIAPH2 / RFU, SKA2 / Fold change vs veh, SKA2 / RFU, AFF3 / Fold change vs veh, AFF3 / RFU, LMF1 / Fold change vs veh, LMF1 / RFU, IPO11 / Fold change vs veh, IPO11 / RFU, DFFB / Fold change vs veh, DFFB / RFU, FOXP1 / Fold change vs veh, FOXP1 / RFU, CARD8 / Fold change vs veh, CARD8 / RFU, STRN3 / Fold change vs veh, STRN3 / RFU, ADK / Fold change vs veh, ADK / RFU, RASSF2 / Fold change vs veh, RASSF2 / RFU, WIPF1 / Fold change vs veh, WIPF1 / RFU, LARP1B / Fold change vs veh, LARP1B / RFU, RASA1 / Fold change vs veh, RASA1 / RFU, RB1 / Fold change vs veh, RB1 / RFU, PPFIA1 / Fold change vs veh, PPFIA1 / RFU, MAT2A / Fold change vs veh, MAT2A / RFU, CCT5 / Fold change vs veh, CCT5 / RFU, WDR92 / Fold change vs veh, WDR92 / RFU, CUX1 / Fold change vs veh, CUX1 / RFU, TTC7A / Fold change vs veh, TTC7A / RFU, TMEM135 / Fold change vs veh, TMEM135 / RFU, DEPTOR / Fold change vs veh, DEPTOR / RFU, CPM / Fold change vs veh, CPM / RFU, DNAJB6 / Fold change vs veh, DNAJB6 / RFU, CACNA2D3 / Fold change vs veh, CACNA2D3 / RFU, DTX4 / Fold change vs veh, DTX4 / RFU, TFCP2 / Fold change vs veh, TFCP2 / RFU, GMCL1 /// GMCL1P1 / Fold change vs veh, GMCL1 /// GMCL1P1 / RFU, AEBP2 / Fold change vs veh, AEBP2 / RFU, SNHG1 /// SNORD22 /// SNORD25 /// SNORD26 /// SNORD27 /// SNORD28 /// SNORD29 /// SNORD31 / Fold change vs veh, SNHG1 /// SNORD22 /// SNORD25 /// SNORD26 /// SNORD27 /// SNORD28 /// SNORD29 /// SNORD31 / Fold change (Aza/veh), C12orf56 (ProbeSet 11735607_a_at) / Fold change (ACY-1035/veh), C12orf56 (ProbeSet 11735607_a_at) / Fold change (Aza/veh), FGFR1OP (ProbeSet 11751329_s_at) / Fold change (ACY-1035/veh), FGFR1OP (ProbeSet 11751329_s_at) / Fold change (Aza/veh), VPS36 (ProbeSet 11739960_a_at) / Fold change (ACY-1035/veh), VPS36 (ProbeSet 11739960_a_at) / RFU SYPL1 (11715823_x_at) / Fold change /veh SYPL1 (11715823_x_at) / RFU IGFBP7 (11715501_s_at) / Fold change /veh IGFBP7 (11715501_s_at) / RFU REEP3 (11722064_at) / Fold change /veh REEP3 (11722064_at) / RFU IGLL1 (11728026_x_at) / Fold change /veh IGLL1 (11728026_x_at): dose or concentration left out as unconfirmed
Conditions: MV-4-11 cells, 48 hours

SMILES: Nc1ncn([C@@H]2O[C@H](CO)[C@@H](O)[C@H]2O)c(=O)n1 [azacitidine]
- RFU CD79A (11719716_a_at): 8.73 RFU
